# Measurements taken from ChEMBL document CHEMBL1201862, “PubChem BioAssay data set” (2004).
#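 96-well plates; 48 h exposure; 5 concentrations. Endpoints by linear interpolation between flanking doses. Not reached: highest tested concentration assigned. The concentration for 50% growth inhibition is given as GI50.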 The source made the active and inactive calls. No stated cut-off is given here; in the data, active = GI50 up to about 1.1 µM and inactive = higher.
# Columns and labels:
# Assay in all cases: growth of human tumour cells (NCI), 48 h
# [1] = system: A549
# [2] = system: ACHN
# [3] = system: EKVX
# [4] = system: HCT-15
# [5] = system: KM12
# [6] = system: M14
# [7] = system: MCF7
# [8] = system: OVCAR-3
# [9] = system: OVCAR-5
# [10] = system: OVCAR-8
# [11] = system: SF-268
# [12] = system: SF-539
# [13] = system: SK-MEL-28
# [14] = system: SK-MEL-2
# [15] = system: SK-MEL-5
# [16] = system: SNB-19
# [17] = system: SW-620
# [18] = system: TK-10
# [19] = system: U-251
# [20] = system: SR
SMILES,GI50 [1],GI50 [2],GI50 [3],GI50 [4],GI50 [5],GI50 [6],GI50 [7],GI50 [8],GI50 [9],GI50 [10],GI50 [11],GI50 [12],GI50 [13],GI50 [14],GI50 [15],GI50 [16],GI50 [17],GI50 [18],GI50 [19],GI50 [20]
O=C(O)c1cncc(C(=O)O)c1,> 100 µM (inactive),> 100 µM (inactive),> 100 µM (inactive),> 100 µM,> 100 µM (inactive),> 100 µM (inactive),> 100 µM (inactive),> 100 µM (inactive),> 100 µM (inactive),> 100 µM (inactive),> 100 µM (inactive),> 100 µM (inactive),> 100 µM (inactive),> 100 µM (inactive),> 100 µM (inactive),> 100 µM (inactive),> 100 µM (inactive),> 100 µM (inactive),> 100 µM (inactive),
Cc1ccc(/C=N/Nc2cnccn2)s1,> 100 µM (inactive),> 100 µM (inactive),80.5 µM (inactive),> 100 µM,> 100 µM (inactive),> 100 µM (inactive),17.4 µM (inactive),> 100 µM (inactive),> 100 µM (inactive),> 100 µM (inactive),> 100 µM (inactive),> 100 µM (inactive),> 100 µM (inactive),> 100 µM (inactive),> 100 µM (inactive),> 100 µM (inactive),> 100 µM (inactive),> 100 µM (inactive),> 100 µM (inactive),
C1=C(c2ccccc2)SC=C(c2ccccc2)S1,32.1 µM (inactive),60.5 µM (inactive),24.1 µM (inactive),26.2 µM,16.9 µM (inactive),39.8 µM (inactive),16.9 µM (inactive),33.7 µM (inactive),44.4 µM (inactive),44.8 µM (inactive),28.3 µM (inactive),31.7 µM (inactive),49 µM (inactive),,19.6 µM (inactive),> 100 µM (inactive),25.9 µM (inactive),28.8 µM (inactive),38.4 µM (inactive),
CCOP(=O)(Nc1ccc(-c2ccc(N)cc2)cc1)OCC,> 100 µM (inactive),> 100 µM (inactive),38.9 µM (inactive),> 100 µM,> 100 µM (inactive),> 100 µM (inactive),> 100 µM (inactive),> 100 µM (inactive),51.6 µM (inactive),> 100 µM (inactive),> 100 µM (inactive),,> 100 µM (inactive),> 100 µM (inactive),> 100 µM (inactive),94.8 µM (inactive),,> 100 µM (inactive),> 100 µM (inactive),
O=C(O)CCSc1ncnc2[nH]cnc12,> 100 µM (inactive),> 100 µM (inactive),> 100 µM (inactive),> 100 µM,> 100 µM (inactive),> 100 µM (inactive),> 100 µM (inactive),> 100 µM (inactive),> 100 µM (inactive),> 100 µM (inactive),> 100 µM (inactive),> 100 µM (inactive),> 100 µM (inactive),> 100 µM (inactive),> 100 µM (inactive),> 100 µM (inactive),> 100 µM (inactive),> 100 µM (inactive),> 100 µM (inactive),
Clc1nc2n(c1/C=C/c1cccs1)CCS2,34.5 µM (inactive),37.5 µM (inactive),5.43 µM (inactive),37 µM,37.7 µM (inactive),38.7 µM (inactive),30.8 µM (inactive),23.5 µM (inactive),27.3 µM (inactive),29.7 µM (inactive),40.4 µM (inactive),,34.8 µM (inactive),> 100 µM (inactive),17.1 µM (inactive),43.6 µM (inactive),26.9 µM (inactive),36 µM (inactive),28.1 µM (inactive),
COc1ccc2c(n1)Sc1nc3ccccc3nc1N2,> 100 µM (inactive),23.2 µM (inactive),12.6 µM (inactive),24.9 µM,55.7 µM (inactive),> 100 µM (inactive),65.2 µM (inactive),32.4 µM (inactive),56.1 µM (inactive),16.2 µM (inactive),58.5 µM (inactive),14.4 µM (inactive),> 100 µM (inactive),> 100 µM (inactive),> 100 µM (inactive),30.3 µM (inactive),> 100 µM (inactive),15.6 µM (inactive),19.4 µM (inactive),
COc1cc(C2S/C(=C/c3ccccc3)C(=O)N2c2ccccn2)cc(OC)c1OC (configuration not stated),18.5 µM (inactive),10.5 µM (inactive),24.4 µM (inactive),12.8 µM,12.9 µM (inactive),15.1 µM (inactive),11.7 µM (inactive),12.4 µM (inactive),20.8 µM (inactive),9.2 µM (inactive),15.2 µM (inactive),,23 µM (inactive),30 µM (inactive),20.2 µM (inactive),18.1 µM (inactive),15.3 µM (inactive),45.7 µM (inactive),10.2 µM (inactive),3.02 µM (inactive)
O=C1NC2=NN=C(c3ccc(Br)cc3)CN2NC12c1ccccc1-c1ccccc12,> 100 µM (inactive),> 100 µM (inactive),> 100 µM (inactive),> 100 µM,,> 100 µM (inactive),73.3 µM (inactive),> 100 µM (inactive),> 100 µM (inactive),> 100 µM (inactive),> 100 µM (inactive),> 100 µM (inactive),> 100 µM (inactive),> 100 µM (inactive),> 100 µM (inactive),> 100 µM (inactive),> 100 µM (inactive),> 100 µM (inactive),> 100 µM (inactive),69.2 µM (inactive)
O=[N+]([O-])C(=C1NCCN1)/C(Cl)=C(/Cl)N1CCOCC1,> 100 µM (inactive),> 100 µM (inactive),> 100 µM (inactive),> 100 µM,> 100 µM (inactive),> 100 µM (inactive),> 100 µM (inactive),> 100 µM (inactive),> 100 µM (inactive),> 100 µM (inactive),> 100 µM (inactive),> 100 µM (inactive),> 100 µM (inactive),> 100 µM (inactive),,> 100 µM (inactive),> 100 µM (inactive),,> 100 µM (inactive),
CC1(C)CC(=O)C(CCC(=O)/C=C/c2ccccc2)C(=O)C1,> 100 µM (inactive),98.9 µM (inactive),> 100 µM (inactive),> 100 µM,> 100 µM (inactive),> 100 µM (inactive),> 100 µM (inactive),> 100 µM (inactive),> 100 µM (inactive),> 100 µM (inactive),> 100 µM (inactive),> 100 µM (inactive),> 100 µM (inactive),> 100 µM (inactive),> 100 µM (inactive),> 76.4 µM (inactive),> 100 µM (inactive),> 100 µM (inactive),> 100 µM (inactive),
COc1ccc(N2C(=O)CC(Cl)C2=O)cc1 (configuration not stated),> 100 µM (inactive),17.9 µM (inactive),> 100 µM (inactive),17.5 µM,,> 100 µM (inactive),60.1 µM (inactive),15.2 µM (inactive),18.2 µM (inactive),16.6 µM (inactive),> 100 µM (inactive),18.2 µM (inactive),16.6 µM (inactive),> 100 µM (inactive),> 100 µM (inactive),> 100 µM (inactive),18.7 µM (inactive),18.8 µM (inactive),> 100 µM (inactive),
COC(=O)C1CCC(=S)N1C(=O)OCc1ccccc1 (configuration not stated),71 µM (inactive),> 100 µM (inactive),49 µM (inactive),92.7 µM,> 100 µM (inactive),> 100 µM (inactive),88.3 µM (inactive),78.3 µM (inactive),> 100 µM (inactive),> 100 µM (inactive),98.6 µM (inactive),,> 100 µM (inactive),> 100 µM (inactive),> 100 µM (inactive),> 100 µM (inactive),83.2 µM (inactive),> 100 µM (inactive),81.8 µM (inactive),> 100 µM (inactive)
CN1C(=S)C(c2ccccc2)Sc2ccccc21 (configuration not stated),84.3 µM (inactive),> 100 µM (inactive),14 µM (inactive),52.1 µM,63.7 µM (inactive),> 100 µM (inactive),48.8 µM (inactive),48.2 µM (inactive),82 µM (inactive),43.3 µM (inactive),> 100 µM (inactive),,> 100 µM (inactive),,34.8 µM (inactive),> 100 µM (inactive),,85.9 µM (inactive),> 100 µM (inactive),64.4 µM (inactive)
O=S1(=O)c2ccccc2Oc2ccc(C(/C=N/O)=N/O)cc21,65.5 µM (inactive),38.6 µM (inactive),7.71 µM (inactive),41 µM,22 µM (inactive),37.3 µM (inactive),26.5 µM (inactive),12.3 µM (inactive),> 100 µM (inactive),18.4 µM (inactive),30.1 µM (inactive),26 µM (inactive),56.8 µM (inactive),25.7 µM (inactive),,,,0.155 µM (active),41.2 µM (inactive),
COc1ccc(Nc2nc(NNC(=O)Cc3ccccc3)nc(NNC(=O)c3ccncc3)n2)cc1,> 10 µM (inactive),> 10 µM (inactive),0.955 µM (active),> 10 µM,> 10 µM (inactive),> 10 µM (inactive),> 10 µM (inactive),> 10 µM (inactive),> 10 µM (inactive),> 10 µM (inactive),> 10 µM (inactive),> 10 µM (inactive),> 10 µM (inactive),,> 10 µM (inactive),> 10 µM (inactive),> 10 µM (inactive),> 10 µM (inactive),> 10 µM (inactive),> 10 µM (inactive)
